{"source": "patent US20050009772A1", "about": "“Methods and compositions for the treatment of glaucoma and other retinal diseases” (The Regents of the University of California, priority 2003, published 2005)", "key": {"[1]": {"test_system": "retinal ganglion cells (RGCs)", "assay": "Density of DTMR-labeled RGCs in rat glaucoma model (Experiment 2)", "type": "in vivo", "method": "GGA was then given twice a week at the same dose until euthanasia. Sustained elevation of intraocular pressure (IOP) was maintained by performing trabecular laser photocoagulation three weeks after the first photocoagulation. […] IOP and body weight were measured once a week. […] Rats were anesthetized with intramuscular injections of 0.8 ml/kg of the anesthetic cocktail described above. A previously published procedure was modified to produce chronic moderately elevated IOP unilaterally, while the untreated contralateral eye served as the comparative control.40 Animals were injected intracamerally with 10 μl of 35% India ink (Becton Dickinson, Cockeysville, Md.) in 0.01 M PBS after removing a similar volume of aqueous. At the end of the procedure, Tobrex ophthalmic ointment (tobramycin 0.3%; Alcon, Fort Worth, Tex.) was applied topically. Five days after intracameral injection of India ink, a dark band at the limbus was noted due to the aggregation of carbon particles in the trabecular meshwork.38 After anesthesia, approximately 200 laser burns were delivered ab externo to the pigmented trabecular band at laser settings of 200 μm diameter, 200 mW power and 0.2 seconds duration. Three weeks after the first laser treatment, another trabecular laser photocoagulation was performed without further injection of ink. […] A cross section of the optic nerve was made with the needle knife through the opening of the optic nerve sheath, with care not to damage the adjacent blood supply. DTMR crystals were applied to the proximal cut surface of the optic nerve to label RGCs by fast retrograde axonal transport. After euthanasia and enucleation, the retinas were dissected and flattened with four radial cuts (superotemporal, inferotemporal, superonasal, and inferonasal). They were placed with vitreal side up on glass slides, dried in the dark at room temperature overnight and mounted. The retinas were examined with a fluorescence microscope (Axioplan; Carl Zeiss, Oberkochen, Germany) equipped with a filter that permits visualization of rhodamine fluorescence (excitation filter BP 546, barrier filter LP590; Carl Zeiss). The counting of RGCs was conducted by 2 examiners in a masked fashion. […] Each rectangular area measured 0.475 mm×0.362 mm and the total counted area corresponded to approximately 3.1% of each total retinal area. Data are expressed as number of RGCs per mm2."}, "[2]": {"test_system": "cells in the retinal ganglion cell layer (RGCL)", "assay": "Counting of cresyl violet-stained cells in the RGCL in rat glaucoma model (Experiment 2)", "type": "in vivo", "method": "GGA was then given twice a week at the same dose until euthanasia. Sustained elevation of intraocular pressure (IOP) was maintained by performing trabecular laser photocoagulation three weeks after the first photocoagulation. […] IOP and body weight were measured once a week. After 5 weeks of IOP elevation, the number of retrogradely labeled RGCs with dextran tetramethylrhodamine (DTMR) was counted (n=53). The grading of optic nerve injury and the counting of cresyl violet-stained cells in the retinal ganglion cell layer (RGCL) was also performed (n=54).\nRats were anesthetized with intramuscular injections of 0.8 ml/kg of the anesthetic cocktail described above. A previously published procedure was modified to produce chronic moderately elevated IOP unilaterally, while the untreated contralateral eye served as the comparative control.40 Animals were injected intracamerally with 10 μl of 35% India ink (Becton Dickinson, Cockeysville, Md.) in 0.01 M PBS after removing a similar volume of aqueous. At the end of the procedure, Tobrex ophthalmic ointment (tobramycin 0.3%; Alcon, Fort Worth, Tex.) was applied topically. Five days after intracameral injection of India ink, a dark band at the limbus was noted due to the aggregation of carbon particles in the trabecular meshwork.38 After anesthesia, approximately 200 laser burns were delivered ab externo to the pigmented trabecular band at laser settings of 200 μm diameter, 200 mW power and 0.2 seconds duration. Three weeks after the first laser treatment, another trabecular laser photocoagulation was performed without further injection of ink.\nCorresponding loss of cells from the RGCL was evaluated by counting cells in the RGCL in cresyl violet-stained retinas. After collecting the optic nerves, enucleated eyeballs were postfixed in 10% neutral buffered formalin for 1 hour and washed in 0.1 M phosphate buffer (pH 7.4). The retinas were dissected and flat mounted on a slide, vitreal side up. Four radial cuts were made in the peripheral retinas. The specimens were dried overnight, stained with 1% cresyl violet, dehydrated, and covered with coverslips. Morphologically distinguishable glial cells and vascular endothelial cells were not counted. Cells with cytoplasm rich in Nissl substance and with irregular outlines were counted as neurons.43 The numbers of neurons in the RGCL in regions 1 mm (posterior), 2 mm (mid-peripheral) and 3 mm (peripheral) from the center of the optic nerve head were taken with an eye-piece reticule of a microscope at 400× magnification. The counting was performed by two investigators in a masked fashion and averaged."}, "[3]": {"test_system": "TUNEL positive cells in the RGCL", "assay": "TUNEL analysis of RGCL after 1 week of IOP elevation (Experiment 3)", "type": "in vivo, rat", "description": "Experiment 3 was performed to investigate the inhibition of apoptosis with GGA administration after 1 week of IOP elevation (n=56).\nRats were anesthetized with intramuscular injections of 0.8 ml/kg of the anesthetic cocktail described above. […] At the end of the procedure, Tobrex ophthalmic ointment (tobramycin 0.3%; Alcon, Fort Worth, Tex.) was applied topically. Five days after intracameral injection of India ink, a dark band at the limbus was noted due to the aggregation of carbon particles in the trabecular meshwork.38 After anesthesia, approximately 200 laser burns were delivered ab externo to the pigmented trabecular band at laser settings of 200 μm diameter, 200 mW power and 0.2 seconds duration. Three weeks after the first laser treatment, another trabecular laser photocoagulation was performed without further injection of ink.\nFour-μm thick paraffin embedded sections along the vertical meridian of the optic nerve head were collected and a minimum of 6 retinal sections (8 μm apart) per eyeball was used for counting the number of TUNEL positive cells in the RGCL. Only full length and undamaged retinal sections without oblique orientation were used. The procedures described in the ApopTag Peroxidase In Situ Apoptosis Detection Kit (Intergen Co., Purchase, N.Y.) were followed and diaminobenzidine (Sigma, St. Louis, Mo.) was used as a color substrate. Counting was performed by two masked investigators with light microscopy, and averaged."}, "[4]": {"test_system": "HSP72", "assay": "Western blot for HSP72 in enriched RGC fraction after systemic administration of GGA (Experiment 1)", "type": "in vivo, rat", "settings": "GGA 200 mg/kg daily i.p.", "description": "Experiment 1 was performed to evaluate the expression of HSP72 and HSC70 in RGCs after systemic administration of GGA with Western blot analysis and immunohistochemistry. For Western blotting, twelve rats were equally divided into 6 groups. Three groups of animals were given intraperitoneal injections of GGA 200 mg/kg daily and were euthanized after 1-, 3- or 7 days of administration of GGA. Three control groups were intraperitoneally administered 1) saline-vehicle daily for 7 days; 2) GGA with 4 mg/kg of quercetin (Sigma, St. Louis, Mo.) daily for 7 days; and 3) untreated animals. Enriched RGC fraction was harvested from 2 retinas of each group and used for Western blot analysis. The same experiment for isolation of RGCs and Western blotting was repeated with the other 2 retinas-from each group.\nA solution of 80 mg/mL GGA was prepared in saline (Balanced salt solution; Alcon Laboratories, Inc., Fort Worth, Tex.) and emulsified for one hour in an ultrasonic generator (Branson Ultrasonic Corp., Danbury, Conn.) immediately before administration. Intraperitoneal injections of GGA were given at a dose of 200 mg/kg. Saline-vehicle was prepared and administered in the same fashion in vehicle-treated control groups.\nA previously described method was modified to partially purify RGCs from other retinal cells in rat retinas.38 Briefly, two dissected rat retinas from each subgroup were washed in 2.5 ml of calcium- and magnesium-free phosphate buffered saline (PBS) at pH 7.4, and incubated in 1.25 ml of PBS containing 0.5 mg/ml trypsin and 0.01% deoxyribonuclease for 15 minutes at 37° C. This was followed by washing the retinas twice in 2.5 ml of minimal essential medium (MEM) containing 10% (vol/vol) fetal bovine serum. The retinas were subsequently washed in 2.5 ml of MEM twice and dissociated in 3 ml of MEM. The cell suspension was then mixed with 1.5 ml of 30% metrizamide (ICN Biomedicals, Inc., Aurora, Ohio) in MEM to a final concentration of 10 metrizamide. This mixture was then overlaid with 5% metrizamide in MEM, and the gradient was centrifuged at 4500 rpm (HB-4; Sorvall Instruments, Newtown, Conn.) for 25 minutes at 4° C. The cells in the 5% to 10% interface were collected. and washed in 25 ml of cold MEM. The washed cells were pelleted by centrifugation at 250×g for 10 minutes (Juan 3000C centrifuge, Winchester, Va.). The cells were then resuspended in 400 μl of MEM buffer, and the protein concentration in the cell suspension was measured with a bicinchoninic acid (BCA) protein assay kit (Pierce, Rockford, Ill.).\nWestern blot analysis was performed according to the procedure described by Towbin et al.39 Aliquots of 20 μg of protein from enriched RGCs were separated on a 12% SDS-polyacrylamide minigel (Bio-Rad, Hercules, Calif.) and transferred to the membrane (Immunobilon-P; Millipore Corporation, Bedford, Mass.). The membrane was blocked by incubation in 0.1% Tween-20 in 100 mM Tris-buffered saline containing 10% nonfat dried milk for 1 hour. The membranes were incubated with mouse monoclonal antibody against HSP72 (1:1000; StressGen Biotechnologies Corp., Victoria, British Columbia, Canada) or with rat monoclonal antibody against HSC70 (1:1000; StressGen) overnight and then biotinylated rabbit anti-mouse secondary antibody (1:500; Amersham Pharmacia Biotech, Inc., Piscataway, N.J.) or biotinylated goat anti-rat secondary antibody (1:500; Amersham Pharmacia) for 1 hour. This was followed by incubation with streptavidin-conjugated horseradish peroxidase (1:2000; Amersham Pharmacia) for 40 minutes. The immunoreactive bands were detected by chemiluminescence with an enhanced chemiluminescence Western blot reagent (Amersham Pharmacia)."}, "[5]": {"settings": "contralateral controls (normal IOP)"}, "[6]": {"settings": "retinas with IOP elevation, 5 weeks"}}, "note": "“Also recorded” adds a separate entry of the source.", "data": [{"substance": "Geranylgeranylacetone [GGA]", "values": [{"measurement": "density of DTMR-labeled RGCs", "setting": "[1]; [5]", "value": "1077±48", "unit": "cells/mm2"}, {"measurement": "density of DTMR-labeled RGCs vs vehicle-treated controls (in words)", "setting": "[1]; [5]", "value": "no statistical significance"}, {"measurement": "density of DTMR-labeled RGCs", "setting": "[1]; [6]", "value": "1044±36", "unit": "cells/mm2"}, {"measurement": "more DTMR-labeled cells preserved compared with vehicle", "setting": "[1]; [6]", "value": 57, "unit": "%"}, {"measurement": "effect on density of DTMR-labeled RGCs (in words)", "setting": "[1]; retinas with IOP elevation, 5 weeks, quercetin = co-administered with GGA", "value": "higher density; also recorded: partial"}, {"measurement": "cells in the RGCL (cresyl violet)", "setting": "[2]; 5 weeks of elevated IOP", "value": "2697±70", "unit": "cells/mm2"}, {"measurement": "effect on loss of cells in the RGCL (in words)", "setting": "[2]; 5 weeks of elevated IOP", "value": "inhibited the loss of cells"}, {"measurement": "cells in the RGCL (cresyl violet)", "setting": "[2]; contralateral control retinas", "value": "2644±59", "unit": "cells/mm2"}, {"measurement": "effect on number of cells in the RGCL (in words)", "setting": "[2]; contralateral control retinas", "value": "no significant effect"}, {"measurement": "inhibition of cell death", "setting": "[3]; 1 week of IOP elevation", "value": 57, "unit": "%"}, {"measurement": "number of TUNEL positive cells in the RGCL", "setting": "[3]; 1 week of IOP elevation", "value": "0.53±0.11", "unit": "per retinal section"}, {"measurement": "effect on number of TUNEL positive cells (in words)", "setting": "[3]; elevated IOP retinas, 1 week, quercetin = co-administered with GGA", "value": "significantly reduced"}, {"measurement": "immunoreactivity of HSP72 in RGCs (immunoblot)", "setting": "[4]; 1 day", "value": "mild increase in immunoreactivity"}, {"measurement": "immunoreactivity of HSP72 in RGCs (immunoblot)", "setting": "[4]; 3 days", "value": "increased HSP72 expression; also recorded: strong increase in immunoreactivity"}, {"measurement": "immunoreactivity of HSP72 in RGCs (immunoblot)", "setting": "[4]; 7 days", "value": "increased HSP72 expression; also recorded: strong increase in immunoreactivity"}]}]}
